Data published in the Deep4Chem optical property database.
“And” between values parts separate entries of the source, which are not always exact repeats. Equal entries are not always repeated. Each block holds one compound with its values, some of them ahead of it.

Assay: solvent given as SMILES

SMILES: CN(C)c1cc(C#N)c(N(C)C)c(C#N)c1
absorption maximum (in C1CCCCC1): 387.45 nm
absorption maximum (in C1CCOC1): 390.47 nm
absorption maximum (in C1COCCO1): 391.08 nm
absorption maximum (in CC1COC(=O)O1): 394.48 nm
absorption maximum (in CC#N): 390.93 nm
absorption maximum (in CC(C)=O): 389.86 nm
absorption maximum (in CC(C)OC(C)C): 386.7 nm
absorption maximum (in CCC#N): 391.08 nm
absorption maximum (in CCC(C)C): 385.21 nm
absorption maximum (in CCCCCC): 386.7 nm
absorption maximum (in CCCCCCCCO): 393.39 nm
absorption maximum (in CCCCCOCCCCC): 388.5 nm
absorption maximum (in CCCCOC(C)=O): 389.86 nm
absorption maximum (in CCCCOCCCC): 387.6 nm
absorption maximum (in CCCOCCC): 389.86 nm
absorption maximum (in CCO): 391.7 nm
absorption maximum (in CCOC(C)=O): 389.71 nm
absorption maximum (in CCOCC): 390.62 nm
absorption maximum (in CN(C)C=O): 393.55 nm
absorption maximum (in CO): 392.31 nm
absorption maximum (in CS(C)=O): 396.83 nm
absorption maximum (in Cc1ccccc1): 395.26 nm
absorption maximum (in ClCCCl): 394.48 nm
absorption maximum (in ClCCl): 397.3 nm
absorption maximum (in N#Cc1ccccc1): 399.36 nm
absorption maximum (in O): 386.85 nm
absorption maximum (in OCC(O)CO): 403.39 nm
absorption maximum (in c1ccccc1): 395.73 nm

SMILES: CC1(C)c2cc(/C=C/c3nc(/C=C/c4ccc5c(c4)C(C)(C)c4cc(N(c6ccccc6)c6ccc7ccccc7c6)ccc4-5)nc(/C=C/c4ccc5c(c4)C(C)(C)c4cc(N(c6ccccc6)c6ccc7ccccc7c6)ccc4-5)n3)ccc2-c2ccc(N(c3ccccc3)c3ccc4ccccc4c3)cc21
absorption maximum (in C1CCOC1): 403 nm

SMILES: O=P1(c2ccccc2)c2ccc(N3c4ccccc4Oc4ccccc43)cc2-c2cc(N3c4ccccc4Oc4ccccc43)ccc21
absorption maximum (in Cc1ccccc1): 405 nm
absorption maximum (in c1ccc2c(c1)c1ccccc1n2-c1ccc(-c2ccc(-n3c4ccccc4c4ccccc43)cc2)cc1): 404.2 nm

SMILES: Cc1cc(C)c(B(c2cc3c4c(c(B(c5c(C)cc(C)cc5C)c5c(C)cc(C)cc5C)cc5c4c2CCC5)CCC3)c2c(C)cc(C)cc2C)c(C)c1
absorption maximum (in CCCCCC): 420 nm

SMILES: c1ccc(C[n+]2ccc(-c3cc[n+](Cc4ccccc4)cc3)cc2)cc1
absorption maximum (in CC#N): 260 nm

SMILES: CC[N+]1(CC)CN2C(=N1)C(C(=O)O)=Cc1cc(Cl)ccc12
absorption maximum (in O): 377 nm

SMILES: COc1ccc(N(c2ccc(/C=C(\C)c3ccccc3)cc2)c2ccc(OC)cc2)cc1
absorption maximum (in Cc1ccccc1): 347 nm

SMILES: CC(C)CCCCN1CCc2c1ccc1c3c(ccc21)C(=O)CCC3
absorption maximum (in C1CCCCC1): 362 nm
absorption maximum (in CC#N): 370 nm
absorption maximum (in CC(C)O): 376 nm
absorption maximum (in CCC(C)=O): 368 nm
absorption maximum (in CCO): 374 nm
absorption maximum (in CCOC(C)=O): 366 nm
absorption maximum (in CS(C)=O): 376 nm
absorption maximum (in Cc1ccccc1): 368 nm
absorption maximum (in ClCCl): 373 nm
absorption maximum (in Clc1ccccc1): 370 nm

SMILES: CC1=C(I)C(C)=[N+]2C1=C(c1c(-c3ccccn3)nc3ccccn13)c1c(C)cc(C)n1[B-]2(F)F
absorption maximum (in ClCCl): 534 nm

SMILES: CCCCCCc1cc2/c(=C(\C#N)C(=O)OC)s/c(=c3/s/c(=C(/C#N)C(=O)OC)c4cc(CCCCCC)sc34)c2s1
absorption maximum (in Cc1ccccc1): 580 nm

SMILES: OCCSc1cccc2[n+]1[B-](F)(F)n1c(c3cccc4cccc1c43)=N2
absorption maximum (in C1CCOC1): 485 nm
absorption maximum (in CC#N): 480 nm
absorption maximum (in CCCCCC): 484 nm
absorption maximum (in Cc1ccccc1): 487 nm
absorption maximum (in ClCCl): 482 nm and 453 nm

SMILES: CCCCCCc1ccc2c(/C=N/c3cc(/N=C/c4c(O)ccc5cc(CCCCCC)ccc45)cc(/N=C/c4c(O)ccc5cc(CCCCCC)ccc45)c3)c(O)ccc2c1
absorption maximum (in C1CCOC1): 477 nm
absorption maximum (in CC#N): 474 nm
absorption maximum (in Cc1ccccc1): 480 nm
absorption maximum (in ClCCl): 479 nm

SMILES: CCCCCCCCOc1ccc2c3cccc4c(OCCCCCCCC)ccc(c5cccc1c52)c43
absorption maximum (in C1CCOC1): 460 nm
absorption maximum (in Cc1ccccc1): 462 nm
absorption maximum (in ClC(Cl)(Cl)Cl): 462 nm
absorption maximum (in ClC(Cl)Cl): 462 nm
absorption maximum (in ClCCl): 461 nm
absorption maximum (in c1ccncc1): 464 nm

SMILES: CN(C)/C=N\c1ccc2c3c(cccc13)C(=O)c1ccccc1-2
absorption maximum (in C1CCOC1): 459 nm
absorption maximum (in CCCCCC): 437 nm
absorption maximum (in CCO): 471 nm
absorption maximum (in CCOC(C)=O): 459 nm
absorption maximum (in CN(C)C=O): 479 nm
absorption maximum (in CO): 470 nm
absorption maximum (in Cc1ccccc1): 454 nm
absorption maximum (in ClC(Cl)(Cl)Cl): 448 nm
absorption maximum (in ClC(Cl)Cl): 464 nm
absorption maximum (in ClCCl): 467 nm
absorption maximum (in c1ccccc1): 456 nm

SMILES: CN(C)c1ccc(C2=Nc3scc(-c4ccc([N+](=O)[O-])cc4)[n+]3[B-](F)(F)O2)cc1
absorption maximum (in C1CCOC1): 412 nm
absorption maximum (in CC#N): 411 nm
absorption maximum (in Cc1ccccc1): 415 nm
absorption maximum (in ClCCl): 417 nm

SMILES: O=[N+]([O-])c1ccc([N+]2=CC3=C(O[B-]2(F)F)c2ccccc2SC3)cc1
absorption maximum (in ClCCl): 440 nm

SMILES: Cc1cc(N2c3ccccc3C(C)(C)c3ccccc32)ccc1-c1cc(-c2ccc(N3c4ccccc4C(C)(C)c4ccccc43)cc2C)ncn1
absorption maximum (in Cc1ccccc1): 375.94 nm

SMILES: N#Cc1c(-c2ccccc2)cc(-c2ccccc2)[nH]c1=S
absorption maximum (in C1COCCO1): 446 nm
absorption maximum (in CC#N): 434 nm
absorption maximum (in CCCCO): 441 nm
absorption maximum (in CCCO): 431 nm
absorption maximum (in CCO): 407 nm
absorption maximum (in CCOC(C)=O): 430 nm
absorption maximum (in CCOCC): 451 nm
absorption maximum (in CN(C)C=O): 439 nm

SMILES: CCCCC(CC)CN1C(=O)c2cccc3c(C#Cc4ccc(N(c5ccccc5)c5ccccc5)cc4)ccc(c23)C1=O (centres undefined)
absorption maximum (in C1CCCCC1): 422 nm
absorption maximum (in C1CCOC1): 434 nm
absorption maximum (in CC#N): 433 nm
absorption maximum (in Cc1ccccc1): 438 nm
absorption maximum (in ClC(Cl)Cl): 450 nm

SMILES: OB(O)c1ccc(-c2ccc(N(c3ccccc3)c3ccccc3)cc2)cc1
absorption maximum (in C1CCCCC1): 332.8 nm
absorption maximum (in C1CCOC1): 331 nm
absorption maximum (in CCO): 329.6 nm
absorption maximum (in CCOCC): 330 nm
absorption maximum (in CO): 326 nm

SMILES: O=C(O)CCCCCn1c2ccc(Br)cc2c(=O)c2cc(Br)ccc21
absorption maximum (in O): 425 nm

SMILES: Cn1c(=O)c(/N=N/c2ccc(Nc3ccccc3)c(S(=O)(=O)O)c2)c(O)c2ccccc21
absorption maximum (in C1CCOC1): 412 nm
absorption maximum (in CC(C)=O): 407 nm
absorption maximum (in CCOC(C)=O): 411 nm
absorption maximum (in CO): 400 nm
absorption maximum (in CS(C)=O): 396 nm
absorption maximum (in Cc1ccccc1): 414 nm
absorption maximum (in ClCCl): 415 nm
absorption maximum (in O): 385 nm

SMILES: CC1=C(c2cccs2)C(C)=[N+]2C1=C(c1ccc(OS(=O)(=O)c3ccc([N+](=O)[O-])cc3[N+](=O)[O-])cc1)c1c(C)c(-c3cccs3)c(C)n1[B-]2(F)F
absorption maximum (in CO): 526 nm
absorption maximum (in Cc1ccccc1): 535 nm
absorption maximum (in ClCCl): 533 nm

The next lines start with the values.

absorption maximum (in ClC(Cl)Cl): 551 nm
SMILES: CCCCCCCCN1C(=O)c2ccc3c4c(-c5ccc(-n6c7ccccc7c7ccccc76)cc5)cc5c6c(cc(-c7ccc(-n8c9ccccc9c9ccccc98)cc7)c(c7ccc(c2c37)C1=O)c64)C(=O)N(CCCCCCCC)C5=O

absorption maximum (in CC#N): 351 nm
absorption maximum (in CCCCCC): 346 nm
SMILES: C(=C\c1ccc(Nc2ccccc2)cc1)/c1ccccc1

absorption maximum (in C1CCOC1): 408 nm
absorption maximum (in CCCCCC): 402 nm
absorption maximum (in ClC(Cl)Cl): 404 nm
absorption maximum (in ClCCl): 414 nm
SMILES: CN1C(=O)c2cccc3c(-n4c5ccccc5c5ccccc54)ccc(c23)C1=O

absorption maximum (in C1CCCCC1): 387 nm and 384 nm
absorption maximum (in CC#N): 388 nm
absorption maximum (in CC(C)O): 389 nm
absorption maximum (in CO): 389 nm
absorption maximum (in CS(C)=O): 396 nm
absorption maximum (in ClC(Cl)Cl): 383 nm
absorption maximum (in c1ccccc1): 392 nm
SMILES: CN(C)c1ccc2nc(-c3ccc(C(=O)Nc4ccccc4)cc3)sc2c1

absorption maximum (in CCOC(C)=O): 259 nm
SMILES: CCn1c(-c2ccc(OC)cc2)c(-c2ccc3ccccc3c2)c(-c2ccc3ccccc3c2)c1-c1ccc(OC)cc1

absorption maximum (in ClC(Cl)Cl): 346 nm
SMILES: CC(C)(C)c1ccc2c(c1)c1cc(C(C)(C)C)ccc1n2-c1ccc2oc3nc4oc5cc(C(F)(F)F)ccc5c4cc3c2c1

absorption maximum (in CO): 566 nm
SMILES: COC(=O)COc1ccc(/C=C/C2=[N+]3C(=C(c4ccc(N(C)C)cc4)c4c(C)cc(C)n4[B-]3(F)F)C(C)=C2)cc1

absorption maximum (in ClCCl): 656 nm
SMILES: COc1c2ccccc2c(OC)c2c(C#Cc3ccccc3)c3cc4sccc4cc3c(C#Cc3ccccc3)c12

absorption maximum (in CC#N): 276 nm
absorption maximum (in CO): 274 nm
absorption maximum (in O): 275 nm
SMILES: CN(C)CCCN1c2ccccc2CCc2ccccc21

absorption maximum (in C1CCCCC1): 421 nm
absorption maximum (in CC#N): 422 nm
absorption maximum (in CO): 421 nm
absorption maximum (in ClCCl): 425 nm
SMILES: COc1ccc2c(c1)c1c(OC)c3ccccc3c(OC)c1n2C

absorption maximum (in CC#N): 276 nm
absorption maximum (in CO): 276 nm
SMILES: CC(C)CCCN1c2ccccc2CCc2ccccc21

absorption maximum (in ClCCl): 414 nm
SMILES: CC(C)(C)c1cc2ccc3c(N(c4ccccc4)c4ccccc4)cc(N(c4ccccc4)c4ccccc4)c4ccc(c1)c2c34

absorption maximum (in CCO): 612 nm
SMILES: CC1=C(Cl)C(/C=C/c2ccc3c(c2)c2ccccc2n3Cc2cn(CCC[P+](c3ccccc3)(c3ccccc3)c3ccccc3)nn2)=[N+]2C1=C(c1ccc(I)cc1)c1c(C)c(Cl)c(C)n1[B-]2(F)F

absorption maximum (in CC#N): 363 nm
SMILES: Fc1ccc(/C=C/c2nc3c4ccccc4c4ccccc4c3o2)cc1

absorption maximum (in C1COCCO1): 526 nm
absorption maximum (in CS(C)=O): 553 nm
SMILES: O=C1/C(=C2\Sc3ccc(S(=O)(=O)Cl)cc3C2=O)Sc2ccc(S(=O)(=O)Cl)cc21

absorption maximum (in ClCCl): 323 nm
SMILES: COC(=O)c1c(-c2cc3ccccc3oc2=O)nn(-c2cccc(F)c2)c1C(=O)OC

absorption maximum (in O): 428 nm
SMILES: N#Cc1c(N2CCCC2)cc(-c2ccccc2)c2c1-c1cccc3cccc-2c13

absorption maximum (in C1CCOC1): 646 nm
SMILES: CC(C)(C)NC1=CC2=c3cc(NC(C)(C)C)c4nc(C(F)(F)C(F)(F)C(F)(F)F)nc5c(NC(C)(C)C)cc(c3c54)C3=CC(NC(C)(C)C)=C4N=C(C(F)(F)C(F)(F)C(F)(F)F)N=C1C4C32 (centres undefined)
